Data taken from ChEMBL document CHEMBL1136602 (Bioorg Med Chem Lett, 2003).
pKi: −log10 of the molar value.

How the values were obtained:
Mus musculus [1] = test: Anticocaine activity was assessed through attenuation of convulsions caused by the intraperitoneal administration of cocaine 60 mg/kg in mice; type: functional
[2] = molecular target: Sigma non-opioid intracellular receptor 1 (Homo sapiens, UniProt Q99720); test: Binding affinity towards Sigma-1 receptor
Sigma 2 receptor = test: Binding affinity towards Sigma-2 receptor
Mus musculus [3] = test: Anticocaine activity was assessed through attenuation of convulsions caused by the intraperitoneal administration of cocaine 60 mg/kg in mice; Agonist activity exacerbated the convulsive effects of cocaine; type: functional, organism-based; parameters: dose 60 mg/kg; settings: filed as agonist

Sigma non-opioid intracellular receptor 1, sequence (Q99720 whole entry): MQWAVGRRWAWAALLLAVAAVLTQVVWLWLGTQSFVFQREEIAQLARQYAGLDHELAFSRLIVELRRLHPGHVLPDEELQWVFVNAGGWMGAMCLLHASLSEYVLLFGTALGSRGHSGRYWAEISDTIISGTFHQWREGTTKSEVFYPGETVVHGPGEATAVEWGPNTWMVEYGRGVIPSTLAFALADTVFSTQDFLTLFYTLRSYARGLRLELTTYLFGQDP

Compound: COc1cccc(CN2CCN(Cc3ccccc3)CC2)c1
- AD50 (Mus musculus [1]): 17 mg/kg
- pKi [2]: 9.41
- pKi (Sigma 2 receptor): 6.97

Compound: Clc1ccc(CN2CCN(Cc3ccccc3)CC2)c(Cl)c1
- AD50 (Mus musculus [1]): 16 mg/kg
- pKi [2]: 8.12
- pKi (Sigma 2 receptor): 6.91

Compound: Clc1ccccc1CN1CCN(Cc2ccccc2)CC1
- AD50 (Mus musculus [1]): 15 mg/kg
- pKi [2]: 8.28
- pKi (Sigma 2 receptor): 6.28

Compound: CN(CCc1ccc(Cl)c(Cl)c1)CCN1CCCC1
- AD50 (Mus musculus [1]): 2 mg/kg
- pKi (Sigma 2 receptor): 8.10

Compound: COc1ccc(CN2CCN(Cc3ccccc3)CC2)cc1
- AD50 (Mus musculus [1]): 27 mg/kg
- pKi [2]: 9.33
- pKi (Sigma 2 receptor): 6.79

Compound: Clc1cccc(CN2CCN(Cc3ccccc3)CC2)c1
- AD50 (Mus musculus [1]): 8 mg/kg
- pKi [2]: 9.34
- pKi (Sigma 2 receptor): 7.25

Compound: Clc1ccc(CN2CCN(Cc3ccccc3)CC2)cc1
- AD50 (Mus musculus [1]): 29 mg/kg
- pKi [2]: 8.85
- pKi (Sigma 2 receptor): 6.73

Compound: c1ccc(CN2CCN(Cc3ccccc3)CC2)cc1
- AD50 (Mus musculus [1]): 23 mg/kg
- pKi (Sigma 2 receptor): 5.89

Compound: Clc1ccc(CN2CCN(Cc3ccccc3)CC2)cc1Cl
- AD50 (Mus musculus [3]): Agonist activity exacerbated the convulsive effects of cocaine
- pKi [2]: 9.24
- pKi (Sigma 2 receptor): 8.12
